In ChEMBL document CHEMBL2074019, “Functional characterization of human organic anion transporting polypeptide B (OATP-B) in comparison with liver-specific OATP-C” (Pharm Res, 2001):
Where a name gives a salt, the structure may show the parent alone.

Legend:
Assay type in all cases: functional, cell-based
[1] = biological target: T1, Solute carrier organic anion transporter family member 1B1 (Homo sapiens, UniProt Q9Y6L6); assay: TP_TRANSPORTER: inhibition of E1S uptake (E1S: 0.04 uM, Estrone-3-glucuronide: 100 uM) in OATP-C-expressing HEK293 cells; conditions: hek293, 100 µM
T1 sequence (Q9Y6L6 whole entry): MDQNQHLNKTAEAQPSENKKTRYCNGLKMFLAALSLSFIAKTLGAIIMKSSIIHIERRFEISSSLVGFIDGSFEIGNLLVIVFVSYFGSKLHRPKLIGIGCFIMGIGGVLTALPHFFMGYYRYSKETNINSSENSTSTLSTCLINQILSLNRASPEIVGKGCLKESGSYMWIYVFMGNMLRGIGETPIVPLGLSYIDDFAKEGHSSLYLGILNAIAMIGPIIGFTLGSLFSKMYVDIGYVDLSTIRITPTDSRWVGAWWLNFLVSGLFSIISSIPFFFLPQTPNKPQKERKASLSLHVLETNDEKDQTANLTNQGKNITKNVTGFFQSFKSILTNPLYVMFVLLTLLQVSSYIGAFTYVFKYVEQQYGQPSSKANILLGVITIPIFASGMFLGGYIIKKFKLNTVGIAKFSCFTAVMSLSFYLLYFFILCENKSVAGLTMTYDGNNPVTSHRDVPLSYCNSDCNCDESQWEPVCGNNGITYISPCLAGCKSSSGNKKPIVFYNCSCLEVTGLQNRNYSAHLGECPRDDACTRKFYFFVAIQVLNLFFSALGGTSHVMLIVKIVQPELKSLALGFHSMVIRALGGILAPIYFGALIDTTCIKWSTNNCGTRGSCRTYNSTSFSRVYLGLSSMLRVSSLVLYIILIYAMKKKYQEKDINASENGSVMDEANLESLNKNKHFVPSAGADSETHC

[2] = biological target: T1, Solute carrier organic anion transporter family member 1B1; assay: TP_TRANSPORTER: inhibition of E1S uptake (E1S: 0.04 uM, Estradiol-3-sulfate: 100 uM) in OATP-C-expressing HEK293 cells; conditions: hek293, 100 µM
[3] = biological target: T2, Solute carrier organic anion transporter family member 2B1 (Homo sapiens, UniProt O94956); assay: TP_TRANSPORTER: inhibition of E1S uptake (E1S: 0.04 uM, Estradiol-3-sulfate: 100 uM) in OATP-B-expressing HEK293 cells; conditions: hek293, 100 µM
T2 sequence (O94956 whole entry): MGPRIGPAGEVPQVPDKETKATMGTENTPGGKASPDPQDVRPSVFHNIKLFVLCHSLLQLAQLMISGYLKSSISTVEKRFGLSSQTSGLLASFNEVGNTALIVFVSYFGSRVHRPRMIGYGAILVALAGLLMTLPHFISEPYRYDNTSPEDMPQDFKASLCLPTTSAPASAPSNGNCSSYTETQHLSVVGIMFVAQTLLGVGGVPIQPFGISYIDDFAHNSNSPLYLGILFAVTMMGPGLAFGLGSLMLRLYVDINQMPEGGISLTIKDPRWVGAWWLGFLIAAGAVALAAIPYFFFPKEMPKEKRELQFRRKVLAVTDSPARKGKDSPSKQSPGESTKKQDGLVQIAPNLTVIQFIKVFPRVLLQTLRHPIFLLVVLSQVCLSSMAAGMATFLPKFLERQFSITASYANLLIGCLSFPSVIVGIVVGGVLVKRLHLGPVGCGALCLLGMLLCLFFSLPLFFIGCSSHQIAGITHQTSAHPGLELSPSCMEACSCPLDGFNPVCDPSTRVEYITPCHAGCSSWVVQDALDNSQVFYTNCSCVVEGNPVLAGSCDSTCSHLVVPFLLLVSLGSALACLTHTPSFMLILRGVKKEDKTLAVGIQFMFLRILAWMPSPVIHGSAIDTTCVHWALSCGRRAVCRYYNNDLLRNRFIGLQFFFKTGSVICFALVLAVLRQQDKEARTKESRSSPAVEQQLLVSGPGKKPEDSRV

[4] = biological target: T1, Solute carrier organic anion transporter family member 1B1; assay: TP_TRANSPORTER: inhibition of E217betaG uptake in OATP-C-expressing HEK293 cells
[5] = biological target: T1, Solute carrier organic anion transporter family member 1B1; assay: TP_TRANSPORTER: inhibition of E1S uptake (E1S: 0.04 uM, E217betaG: 100 uM) in OATP-C-expressing HEK293 cells; conditions: hek293, 100 µM
[6] = biological target: T1, Solute carrier organic anion transporter family member 1B1; assay: TP_TRANSPORTER: inhibition of E1S uptake (E1S: 0.04 uM, E2 3SO4 17betaG: 100 uM) in OATP-C-expressing HEK293 cells; conditions: hek293, 100 µM
[7] = biological target: T1, Solute carrier organic anion transporter family member 1B1; assay: TP_TRANSPORTER: inhibition of E1S uptake (E1S: 0.04 uM, beta-Estradiol: 100 uM) in OATP-C-expressing HEK293 cells; conditions: hek293, 100 µM
[8] = biological target: T2, Solute carrier organic anion transporter family member 2B1; assay: TP_TRANSPORTER: inhibition of E1S uptake (E1S: 0.04 uM, beta-Estradiol: 100 uM) in OATP-B-expressing HEK293 cells; conditions: hek293, 100 µM
[9] = biological target: T1, Solute carrier organic anion transporter family member 1B1; assay: TP_TRANSPORTER: inhibition of E1S uptake (E1S: 0.04 uM, #Estrone: 100 uM) in OATP-C-expressing HEK293 cells; conditions: hek293, 100 µM
[10] = biological target: T2, Solute carrier organic anion transporter family member 2B1; assay: TP_TRANSPORTER: inhibition of E1S uptake (E1S: 0.04 uM, #Estrone: 100 uM) in OATP-B-expressing HEK293 cells; conditions: hek293, 100 µM
[11] = substrate: C[C@]12CC[C@@H]3c4ccc(OS(=O)(=O)O)cc4CC[C@H]3[C@@H]1CCC2=O; assay: TP_TRANSPORTER: uptake in OATP-B-expressing HEK293 cells
[12] = substrate: C[C@]12CC[C@@H]3c4ccc(O)cc4CC[C@H]3[C@@H]1CC[C@@H]2O[C@@H]1O[C@H](C(=O)O)[C@@H](O)[C@H](O)[C@H]1O; assay: TP_TRANSPORTER: uptake in OATP-C-expressing HEK293 cells

Q: Which Activity [1] does the source give for C[C@]12CC[C@@H]3c4ccc(O[C@@H]5O[C@H](C(=O)O)[C@@H](O)[C@H](O)[C@H]5O)cc4CC[C@H]3[C@@H]1CCC2=O here?
A: inhibitor [(at a rough estimate) 40 % of control]

Q: C[C@]12CC[C@@H]3c4ccc(OS(=O)(=O)O)cc4CC[C@H]3[C@@H]1CC[C@@H]2O was tested. Which Activity [2] did it give?
A: inhibitor [(at a rough estimate) 10 % of control]

Q: And the Activity [3]?
A: inhibitor [(at a rough estimate) 30 % of control]

Q: With C[C@]12CC[C@@H]3c4ccc(O)cc4CC[C@H]3[C@@H]1CC[C@@H]2O[C@@H]1O[C@H](C(=O)O)[C@@H](O)[C@H](O)[C@H]1O [ESTRADIOL 17B GLUCURONIDE] as the molecule, how does the Ki [4] read?
A: 4430 nM

Q: And the Activity [5]?
A: inhibitor [(at a rough estimate) <1 % of control]

Q: How did the Activity [6] turn out when C[C@]12CC[C@@H]3c4ccc(OS(=O)(=O)O)cc4CC[C@H]3[C@@H]1CC[C@@H]2O[C@@H]1O[C@H](C(=O)O)[C@@H](O)[C@H](O)[C@H]1O [ESTRADIOL GLUCURONIDE SULFATE] was run?
A: inhibitor [(at a rough estimate) 40 % of control]

Q: For C[C@]12CC[C@@H]3c4ccc(O)cc4CC[C@H]3[C@@H]1CC[C@@H]2O [ESTRADIOL], which Activity [7] is on record?
A: inhibitor [(at a rough estimate) 35 % of control]

Q: And the Activity [8]?
A: inhibitor [(at a rough estimate) 60 % of control]

Q: Which Ki [4] does the source give for C[C@]12CC[C@@H]3c4ccc(OS(=O)(=O)O)cc4CC[C@H]3[C@@H]1CCC2=O [ESTRONE SULFURIC ACID] here?
A: 45.8 nM

Q: Which results are given for C[C@]12CC[C@@H]3c4ccc(O)cc4CC[C@H]3[C@@H]1CCC2=O [ESTRONE]?
A: Activity [9]: inhibitor [(at a rough estimate) 40 % of control]; Activity [10]: inhibitor [(at a rough estimate) 45 % of control]

B1: Solute carrier organic anion transporter family member 2B1 (Homo sapiens) (protein)
chain: MGPRIGPAGEVPQVPDKETKATMGTENTPGGKASPDPQDVRPSVFHNIKLFVLCHSLLQLAQLMISGYLKSSISTVEKRFGLSSQTSGLLASFNEVGNTALIVFVSYFGSRVHRPRMIGYGAILVALAGLLMTLPHFISEPYRYDNTSPEDMPQDFKASLCLPTTSAPASAPSNGNCSSYTETQHLSVVGIMFVAQTLLGVGGVPIQPFGISYIDDFAHNSNSPLYLGILFAVTMMGPGLAFGLGSLMLRLYVDINQMPEGGISLTIKDPRWVGAWWLGFLIAAGAVALAAIPYFFFPKEMPKEKRELQFRRKVLAVTDSPARKGKDSPSKQSPGESTKKQDGLVQIAPNLTVIQFIKVFPRVLLQTLRHPIFLLVVLSQVCLSSMAAGMATFLPKFLERQFSITASYANLLIGCLSFPSVIVGIVVGGVLVKRLHLGPVGCGALCLLGMLLCLFFSLPLFFIGCSSHQIAGITHQTSAHPGLELSPSCMEACSCPLDGFNPVCDPSTRVEYITPCHAGCSSWVVQDALDNSQVFYTNCSCVVEGNPVLAGSCDSTCSHLVVPFLLLVSLGSALACLTHTPSFMLILRGVKKEDKTLAVGIQFMFLRILAWMPSPVIHGSAIDTTCVHWALSCGRRAVCRYYNNDLLRNRFIGLQFFFKTGSVICFALVLAVLRQQDKEARTKESRSSPAVEQQLLVSGPGKKPEDSRV
Q: B1 was tested. Which Km [11] did it give?
A: 12.5 µM

B2: Solute carrier organic anion transporter family member 1B1 (Homo sapiens) (protein)
chain: MDQNQHLNKTAEAQPSENKKTRYCNGLKMFLAALSLSFIAKTLGAIIMKSSIIHIERRFEISSSLVGFIDGSFEIGNLLVIVFVSYFGSKLHRPKLIGIGCFIMGIGGVLTALPHFFMGYYRYSKETNINSSENSTSTLSTCLINQILSLNRASPEIVGKGCLKESGSYMWIYVFMGNMLRGIGETPIVPLGLSYIDDFAKEGHSSLYLGILNAIAMIGPIIGFTLGSLFSKMYVDIGYVDLSTIRITPTDSRWVGAWWLNFLVSGLFSIISSIPFFFLPQTPNKPQKERKASLSLHVLETNDEKDQTANLTNQGKNITKNVTGFFQSFKSILTNPLYVMFVLLTLLQVSSYIGAFTYVFKYVEQQYGQPSSKANILLGVITIPIFASGMFLGGYIIKKFKLNTVGIAKFSCFTAVMSLSFYLLYFFILCENKSVAGLTMTYDGNNPVTSHRDVPLSYCNSDCNCDESQWEPVCGNNGITYISPCLAGCKSSSGNKKPIVFYNCSCLEVTGLQNRNYSAHLGECPRDDACTRKFYFFVAIQVLNLFFSALGGTSHVMLIVKIVQPELKSLALGFHSMVIRALGGILAPIYFGALIDTTCIKWSTNNCGTRGSCRTYNSTSFSRVYLGLSSMLRVSSLVLYIILIYAMKKKYQEKDINASENGSVMDEANLESLNKNKHFVPSAGADSETHC
Q: B2 was tested. Which Km [12] did it give?
A: 3.71 µM
